Assays:
[1] = biological target: T1, MerTK (Homo sapiens, UniProt Q12866); assay: Phospho-AKT HTRF, HUVEC, Mer-XL, 8 pt (pAKT HTRF-HUVEC assay, anti-human MerTK-XL stimulation); format: cell-based; details: HUVEC cells, pAkt(Ser473) HTRF, anti-human MerTK-XL stimulation 1 ug/mL 10 minutes
T1 construct: Seed HUVECs (10K cells/well) in EBM-2 complete media; host or cells: HUVEC
T1 sequence (Q12866 21-999): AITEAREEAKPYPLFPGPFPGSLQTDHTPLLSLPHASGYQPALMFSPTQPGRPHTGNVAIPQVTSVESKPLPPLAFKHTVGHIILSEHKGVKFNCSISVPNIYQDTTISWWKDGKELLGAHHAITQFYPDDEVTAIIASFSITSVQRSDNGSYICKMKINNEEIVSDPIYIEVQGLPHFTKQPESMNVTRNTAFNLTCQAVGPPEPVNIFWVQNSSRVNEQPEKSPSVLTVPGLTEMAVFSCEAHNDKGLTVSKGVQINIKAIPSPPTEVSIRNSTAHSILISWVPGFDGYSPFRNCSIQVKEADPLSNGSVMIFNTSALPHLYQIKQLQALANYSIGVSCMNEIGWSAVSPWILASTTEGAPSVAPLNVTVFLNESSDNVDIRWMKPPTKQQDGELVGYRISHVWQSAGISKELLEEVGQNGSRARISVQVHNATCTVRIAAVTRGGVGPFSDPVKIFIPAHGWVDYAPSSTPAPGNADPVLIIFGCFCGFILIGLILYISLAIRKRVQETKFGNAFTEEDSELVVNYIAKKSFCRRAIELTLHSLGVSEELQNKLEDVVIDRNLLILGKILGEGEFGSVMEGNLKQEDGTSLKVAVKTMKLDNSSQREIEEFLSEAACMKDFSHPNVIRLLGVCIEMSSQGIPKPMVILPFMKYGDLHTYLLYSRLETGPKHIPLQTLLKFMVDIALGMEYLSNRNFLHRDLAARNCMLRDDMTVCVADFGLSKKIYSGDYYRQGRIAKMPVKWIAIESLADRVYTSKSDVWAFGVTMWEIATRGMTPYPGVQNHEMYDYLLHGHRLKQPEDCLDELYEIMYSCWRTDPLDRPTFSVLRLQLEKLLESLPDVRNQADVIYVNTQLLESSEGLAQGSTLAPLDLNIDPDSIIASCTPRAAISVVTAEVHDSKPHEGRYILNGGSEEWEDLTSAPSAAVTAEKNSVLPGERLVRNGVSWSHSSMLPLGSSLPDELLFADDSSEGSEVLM
Procedure: (§1) Example 13: PAKT HTRF-HUVEC Assay
(§2) Seed HUVECs (10K cells/well) in EBM-2 complete media (EBM-2 basal medium plus EGM-2 BulletKit supplements) overnight at 37° C., 5% CO2 in Costar 96-well white clear-bottom plates. Remove culture media and starve cells for 3-4 hours in 50 μL/well EBM-2 basal medium. Perform serial dilution of compounds in DMSO from 2.5 mM in 4-fold dilutions, and then dilute 1:125 in EBM-2 basal media. Mix 50 μL/well 2× compounds with 50 μL/well HUVECs in duplicate in Costar 96-well white clear-bottom plates. Incubate plates for 1 hour at 37° C., 5% CO2. Cross-link anti-human MerTK antibody to Biotin-SP-conjugated anti-mouse IgG antibody (1:1) to give final concentrations of 5 μg/mL of anti-human MerTK-XL. Stimulate HUVECs with 25 μL/well 5× anti-human MerTK-XL to give final concentrations of 1 ug/mL for 10 minutes at 37° C., 5% CO2. Completely remove media and lyse HUVECs with 40 uL:WELL per well of Cisbio HTRF 1× lysis buffer. Performed pAkt(Ser473) HTRF assay in ProxiPlate-384 Plus, white 384-shallow well microplate according to the vendor protocol and read plates with a SpectralMax Paradigm plate reader. Enter the HTRF values into Athena (Rigel) for curve fitting, EC50 calculation, and database storage.

[2] = biological target: T2, Axl (Homo sapiens, UniProt P30530); assay: Phospho-AKT HTRF, HUVEC, Axl ABX-L, 8 pt; format: cell-based; details: HUVEC cells, pAkt(Ser473) HTRF, Axl ABX-L stimulation
T2 construct: Seed HUVECs (10K cells/well) in EBM-2 complete media; host or cells: HUVEC
T2 sequence (P30530 26-894): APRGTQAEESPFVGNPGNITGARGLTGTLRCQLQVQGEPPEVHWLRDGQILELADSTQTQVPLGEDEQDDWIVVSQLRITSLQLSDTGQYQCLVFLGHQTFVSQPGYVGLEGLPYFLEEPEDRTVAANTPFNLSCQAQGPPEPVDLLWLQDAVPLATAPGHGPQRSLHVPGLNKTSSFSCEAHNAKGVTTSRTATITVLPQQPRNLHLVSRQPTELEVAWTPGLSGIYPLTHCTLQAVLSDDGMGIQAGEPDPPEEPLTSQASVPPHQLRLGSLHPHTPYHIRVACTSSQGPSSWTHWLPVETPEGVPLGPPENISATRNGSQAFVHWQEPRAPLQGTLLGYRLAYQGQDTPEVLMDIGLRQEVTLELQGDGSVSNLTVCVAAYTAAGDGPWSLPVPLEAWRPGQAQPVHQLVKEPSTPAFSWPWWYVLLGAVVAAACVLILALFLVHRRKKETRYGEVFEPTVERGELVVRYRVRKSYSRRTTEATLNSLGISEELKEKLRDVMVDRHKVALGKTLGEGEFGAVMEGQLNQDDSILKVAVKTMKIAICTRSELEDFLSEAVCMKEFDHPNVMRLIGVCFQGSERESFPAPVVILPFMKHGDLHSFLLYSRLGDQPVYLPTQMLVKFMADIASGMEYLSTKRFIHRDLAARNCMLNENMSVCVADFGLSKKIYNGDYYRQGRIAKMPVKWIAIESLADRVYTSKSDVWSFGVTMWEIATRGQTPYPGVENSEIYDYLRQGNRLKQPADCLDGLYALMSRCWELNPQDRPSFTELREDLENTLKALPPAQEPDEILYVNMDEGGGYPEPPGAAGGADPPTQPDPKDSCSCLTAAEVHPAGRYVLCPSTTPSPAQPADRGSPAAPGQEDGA
Procedure: [The source words this procedure for another target and reports this target under the same test.] as §1, §2

Structure (SMILES)	EC50 [1]	EC50 [2]
COc1cc2c(Oc3ccc(NC(=O)c4nc(-c5ccccc5)c5c(n4)C4CCN5CC4)nc3)ccnc2cc1OCc1ccccc1 [Compound 37, N-(5-((7-(benzyloxy)-6-methoxyquinolin-4-yl)oxy)pyridin-2-yl)-4-phenyl-7,8-dihydro-6H-5,8-ethanopyrido[3,2-d]pyrimidine-2-carboxamide]	63.6 nM	38.4 nM
COc1cc2c(Oc3ccc(NC(=O)c4csc(N5CCC(O)CC5)n4)nc3)ccnc2cc1OCCCN1CCOCC1 [Compound 41, 2-(4-hydroxypiperidin-1-yl)-N-(5-((6-methoxy-7-(3-morpholinopropoxy)quinolin-4-yl)oxy)pyridin-2-yl)thiazole-4-carboxamide]	640 nM	2120 nM
COc1cc2c(Oc3ccc(NC(=O)c4ncc(Br)s4)nc3)ccnc2cc1OCCCN1CCOCC1 [Compound 44, 5-bromo-N-(5-((6-methoxy-7-(3-morpholinopropoxy)quinolin-4-yl)oxy)pyridin-2-yl)thiazole-2-carboxamide]	79.9 nM	102 nM
COc1cc2c(Oc3ccc(NC(=O)c4csc(N5CCC(O)CC5)n4)nc3)ccnc2cc1OCCCN1CCOCC1 [Compound 45, 2-(4-hydroxypiperidin-1-yl)-N-(5-((6-methoxy-7-(3-morpholinopropoxy)quinolin-4-yl)oxy)pyridin-2-yl)thiazole-4-carboxamide, hydrochloric acid]	459 nM	649 nM
COc1cc2c(Oc3ccc(NC(=O)c4ncc(N5CCCCC5)s4)nc3)ccnc2cc1OCCCN1CCOCC1 [Compound 47, N-(5-((6-methoxy-7-(3-morpholinopropoxy)quinolin-4-yl)oxy)pyridin-2-yl)-5-(piperidin-1-yl)thiazole-2-carboxamide]	119 nM	130 nM
COc1cc2c(Oc3ccc(NC(=O)c4ncc(-c5ccccc5)s4)nc3)ccnc2cc1OCCCN1CCOCC1 [Compound 48, N-(5-((6-methoxy-7-(3-morpholinopropoxy)quinolin-4-yl)oxy)pyridin-2-yl)-5-phenylthiazole-2-carboxamide]	238 nM	344 nM

The next compounds have a lower EC50 [1] than those just listed; values first:

EC50 [1]	EC50 [2]	Structure (SMILES)
9.5 nM	5.8 nM	COc1cc2c(Oc3ccc(NC(=O)c4nc(-c5ccccc5)c5c(n4)C4CCN5CC4)cc3F)ccnc2cc1OCCCN1CCOCC1 [Compound 36, N-(3-fluoro-4-((6-methoxy-7-(3-morpholinopropoxy)quinolin-4-yl)oxy)phenyl)-4-phenyl-7,8-dihydro-6H-5,8-ethanopyrido[3,2-d]pyrimidine-2-carboxamide]
7.7 nM	13.1 nM	COc1cc2nccc(Oc3ccc(NC(=O)c4nc(-c5ccccc5)c5c(n4)C4CCN5CC4)nc3)c2cc1OC [Compound 38, N-(5-((6,7-dimethoxyquinolin-4-yl)oxy)pyridin-2-yl)-4-phenyl-7,8-dihydro-6H-5,8-ethanopyrido[3,2-d]pyrimidine-2-carboxamide]
27.2 nM	147 nM	COc1cc2c(Oc3ccc(NC(=O)c4csc(Br)n4)nc3)ccnc2cc1OCCCN1CCOCC1 [Compound 40, 2-bromo-N-(5-((6-methoxy-7-(3-morpholinopropoxy)quinolin-4-yl)oxy)pyridin-2-yl)thiazole-4-carboxamide]
47.2 nM	50 nM	COc1cc2c(Oc3ccc(NC(=O)c4csc(-c5ccccc5)n4)nc3)ccnc2cc1OCCCN1CCOCC1 [Compound 42, N-(5-((6-methoxy-7-(3-morpholinopropoxy)quinolin-4-yl)oxy)pyridin-2-yl)-2-phenylthiazole-4-carboxamide]
44.9 nM	55.2 nM	COc1cc2c(Oc3ccc(NC(=O)c4csc(-c5ccc(F)cc5)n4)nc3)ccnc2cc1OCCCN1CCOCC1 [Compound 43, 2-(4-fluorophenyl)-N-(5-((6-methoxy-7-(3-morpholinopropoxy)quinolin-4-yl)oxy)pyridin-2-yl)thiazole-4-carboxamide]
12.8 nM	20.9 nM	COc1cc2c(Oc3ccc(NC(=O)c4csc(N5CCCCC5)n4)nc3)ccnc2cc1OCCCN1CCOCC1 [Compound 46, N-(5-((6-methoxy-7-(3-morpholinopropoxy)quinolin-4-yl)oxy)pyridin-2-yl)-2-(piperidin-1-yl)thiazole-4-carboxamide]
15.4 nM	26.8 nM	COc1cc2ncnc(Oc3ccc(NC(=O)c4nc(-c5ccccc5)c5c(n4)C4CCN5CC4)nc3)c2cc1OC [Compound 49, N-(5-((6,7-dimethoxyquinazolin-4-yl)oxy)pyridin-2-yl)-4-phenyl-7,8-dihydro-6H-5,8-ethanopyrido[3,2-d]pyrimidine-2-carboxamide]

From patent US10851093B2, “Tyrosine kinase inhibitors” (Rigel Pharmaceuticals, Inc., priority 2018, dated 2020)
